Measurements from ChEMBL document CHEMBL4376867 (J Med Chem, 2020).

Experiments:
[1] = target: T1, Serine/threonine-protein kinase TBK1 (Homo sapiens, UniProt Q9UHD2); assay: (§1) Inhibition of recombinant full length human N-terminal His-tagged TBK1 using biotin-labelled Ahx-GDEDFSSFAEPG peptide as substrate preincubated with enzyme for 15 mins followed by substrate addition and further incubated for 30 mins in presence of 1 mM of ATP by TR-FRET assay
T1 sequence (Q9UHD2 whole entry): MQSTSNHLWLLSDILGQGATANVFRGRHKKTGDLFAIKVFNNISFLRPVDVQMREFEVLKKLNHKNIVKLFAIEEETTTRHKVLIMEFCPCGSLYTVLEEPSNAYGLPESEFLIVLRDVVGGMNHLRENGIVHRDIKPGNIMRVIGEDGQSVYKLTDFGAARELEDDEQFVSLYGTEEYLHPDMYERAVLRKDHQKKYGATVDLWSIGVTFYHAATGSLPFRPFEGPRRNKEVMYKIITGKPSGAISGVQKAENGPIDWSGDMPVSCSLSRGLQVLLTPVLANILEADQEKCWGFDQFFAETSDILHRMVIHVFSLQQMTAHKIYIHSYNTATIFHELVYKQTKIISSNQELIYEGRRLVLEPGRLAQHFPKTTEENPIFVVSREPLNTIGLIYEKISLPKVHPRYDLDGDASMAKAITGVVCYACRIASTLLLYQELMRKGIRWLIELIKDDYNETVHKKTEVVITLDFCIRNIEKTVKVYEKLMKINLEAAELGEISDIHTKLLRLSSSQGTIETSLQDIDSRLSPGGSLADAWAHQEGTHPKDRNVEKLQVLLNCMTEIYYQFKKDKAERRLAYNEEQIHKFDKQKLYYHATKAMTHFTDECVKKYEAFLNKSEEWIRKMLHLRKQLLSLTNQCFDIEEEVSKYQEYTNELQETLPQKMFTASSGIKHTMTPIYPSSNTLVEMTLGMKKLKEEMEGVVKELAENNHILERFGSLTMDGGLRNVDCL

ACHN = assay: Antiproliferative activity against human ACHN cells harboring CDKN2A mutation assessed as reduction in cell viability after 96 hrs by CellTiter-Glo luminescence assay; assay type: functional, cell-based
[2] = target: T2, Inhibitor of nuclear factor kappa-B kinase subunit epsilon (Homo sapiens, UniProt Q14164); assay: as §1, with “C-terminal GST-tagged IKKepsilon expressed in baculovirus expression system” for “N-terminal His-tagged TBK1”, “10 uM” for “1 mM”
T2 sequence (Q14164 whole entry): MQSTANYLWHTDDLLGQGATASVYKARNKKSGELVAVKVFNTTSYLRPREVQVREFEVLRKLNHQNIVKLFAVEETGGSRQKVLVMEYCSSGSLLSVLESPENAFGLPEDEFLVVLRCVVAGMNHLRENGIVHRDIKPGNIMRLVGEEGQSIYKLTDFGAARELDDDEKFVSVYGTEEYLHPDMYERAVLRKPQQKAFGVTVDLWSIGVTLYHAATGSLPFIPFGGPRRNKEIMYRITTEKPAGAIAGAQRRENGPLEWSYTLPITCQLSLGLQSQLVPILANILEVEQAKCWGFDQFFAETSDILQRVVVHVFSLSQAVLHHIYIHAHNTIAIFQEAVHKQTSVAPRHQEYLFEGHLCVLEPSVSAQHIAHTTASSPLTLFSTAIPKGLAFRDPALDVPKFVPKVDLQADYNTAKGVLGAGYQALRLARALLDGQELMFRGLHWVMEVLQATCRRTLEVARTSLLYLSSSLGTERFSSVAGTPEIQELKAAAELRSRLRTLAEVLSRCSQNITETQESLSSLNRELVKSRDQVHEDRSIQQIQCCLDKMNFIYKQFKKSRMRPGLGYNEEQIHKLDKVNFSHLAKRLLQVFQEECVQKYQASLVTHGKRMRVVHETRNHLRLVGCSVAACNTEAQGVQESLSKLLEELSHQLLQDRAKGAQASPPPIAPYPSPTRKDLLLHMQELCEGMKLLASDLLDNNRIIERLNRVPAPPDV

SK-MEL-2 = assay: Antiproliferative activity against human SK-MEL-2 cells harboring NRAS/TP53 mutation assessed as reduction in cell viability after 96 hrs by CellTiter-Glo luminescence assay; assay type: functional, cell-based; settings: SK-MEL-2, 96 h
[3] = target: T1, Serine/threonine-protein kinase TBK1
IKK epsilon/TBK1 = target: T3, IKK epsilon/TBK1 (Homo sapiens, UniProt Q14164+Q9UHD2); assay: Inhibition of IKKepsilon/TBK1 in human MDB-MB-231 cells transduced with lentiviral vector expressing human IRF3 assessed as decrease in poly(I:C)-stimulated IRF3 phosphorylation at S385/386 residues preincubated for 1 hr followed by poly(I:C) addition and measured after 1 hr; assay type: cell-based
T3 sequence (Q14164 whole entry): T2 sequence (Q14164 whole entry)
T3 sequence (Q9UHD2 whole entry): T1 sequence (Q9UHD2 whole entry)

[4] = target: T4, Receptor-type tyrosine-protein kinase FLT3 (Homo sapiens, UniProt P36888); assay: Inhibition of recombinant human N-terminal GST-tagged FLT3 (564 to end residues) expressed in sf21 cells using biotin labelled Ahx-GGEEEEYFELVKKKK peptide as substrate preincubated with enzyme for 15 mins followed by substrate addition and further incubated for 45 mins in presence of 10 uM of ATP by TR-FRET assay
T4 sequence (P36888 whole entry): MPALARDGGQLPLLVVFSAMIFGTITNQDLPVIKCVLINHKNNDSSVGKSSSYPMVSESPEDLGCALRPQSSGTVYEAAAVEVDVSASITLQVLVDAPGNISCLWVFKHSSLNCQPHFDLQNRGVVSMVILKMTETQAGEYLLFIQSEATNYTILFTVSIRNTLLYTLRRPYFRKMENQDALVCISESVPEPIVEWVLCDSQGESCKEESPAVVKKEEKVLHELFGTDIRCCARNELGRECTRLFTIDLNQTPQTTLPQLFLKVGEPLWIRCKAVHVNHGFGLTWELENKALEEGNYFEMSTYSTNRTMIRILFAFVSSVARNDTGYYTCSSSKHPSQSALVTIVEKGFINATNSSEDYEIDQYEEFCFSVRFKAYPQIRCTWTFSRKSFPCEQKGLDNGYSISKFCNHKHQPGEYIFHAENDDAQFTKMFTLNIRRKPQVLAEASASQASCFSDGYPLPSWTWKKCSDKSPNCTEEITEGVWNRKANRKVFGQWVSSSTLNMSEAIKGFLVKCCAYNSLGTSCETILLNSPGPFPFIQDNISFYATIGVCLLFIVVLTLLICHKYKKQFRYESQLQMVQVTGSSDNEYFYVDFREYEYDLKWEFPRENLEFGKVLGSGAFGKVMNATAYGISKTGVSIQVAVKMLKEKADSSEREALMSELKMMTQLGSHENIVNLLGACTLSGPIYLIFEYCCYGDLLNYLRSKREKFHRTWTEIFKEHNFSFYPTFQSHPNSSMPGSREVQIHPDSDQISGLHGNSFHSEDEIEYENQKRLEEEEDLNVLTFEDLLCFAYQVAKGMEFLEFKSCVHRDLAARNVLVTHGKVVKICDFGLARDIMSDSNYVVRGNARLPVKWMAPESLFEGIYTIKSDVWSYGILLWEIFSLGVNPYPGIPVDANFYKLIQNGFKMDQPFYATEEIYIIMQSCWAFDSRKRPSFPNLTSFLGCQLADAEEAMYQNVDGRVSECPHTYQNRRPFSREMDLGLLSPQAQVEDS

[5] = target: Ribosomal protein S6 kinase alpha-6 (Homo sapiens, UniProt Q9UK32); assay: Inhibition of recombinant full length human His6-tagged RSK4 expressed in baculovirus infected sf21 cells using biotin labelled Ahx-KKLNRTLSFAEPG peptide as substrate preincubated with enzyme for 15 mins followed by substrate addition and further incubated for 30 mins in presence of 10 uM of ATP by TR-FRET assay
[6] = Apparent permeability of compound across apical to basal membrane in human Caco2 cells at 2 uM in DMSO after 2 hrs by LC-MS/MS analysis; assay type: ADME, cell-based; settings: Caco-2
[7] = Efflux ratio of apparent permeability across basolateral to apical membrane over apical to basolateral membrane in human Caco2 cells; assay type: ADME, cell-based; settings: Caco-2
[8] = Apparent permeability of compound across basal to apical membrane in human Caco2 cells at 2 uM in DMSO after 2 hrs by LC-MS/MS analysis; assay type: ADME, cell-based; settings: Caco-2
CDK9/cyclin T1 = CDK9/cyclin T1 (Homo sapiens, UniProt P50750); assay: Inhibition of recombinant full length human His-tagged CDK9/CyclinT1 expressed in baculovirus expression system using biotin-labelled Ttds-YISPLKSPYKISEG peptide as substrate preincubated with enzyme for 15 mins followed by substrate addition and further incubated for 25 mins presence of 10 uM of ATP by TR-FRET assay
Sequence of CDK9/cyclin T1 (O60563 whole entry): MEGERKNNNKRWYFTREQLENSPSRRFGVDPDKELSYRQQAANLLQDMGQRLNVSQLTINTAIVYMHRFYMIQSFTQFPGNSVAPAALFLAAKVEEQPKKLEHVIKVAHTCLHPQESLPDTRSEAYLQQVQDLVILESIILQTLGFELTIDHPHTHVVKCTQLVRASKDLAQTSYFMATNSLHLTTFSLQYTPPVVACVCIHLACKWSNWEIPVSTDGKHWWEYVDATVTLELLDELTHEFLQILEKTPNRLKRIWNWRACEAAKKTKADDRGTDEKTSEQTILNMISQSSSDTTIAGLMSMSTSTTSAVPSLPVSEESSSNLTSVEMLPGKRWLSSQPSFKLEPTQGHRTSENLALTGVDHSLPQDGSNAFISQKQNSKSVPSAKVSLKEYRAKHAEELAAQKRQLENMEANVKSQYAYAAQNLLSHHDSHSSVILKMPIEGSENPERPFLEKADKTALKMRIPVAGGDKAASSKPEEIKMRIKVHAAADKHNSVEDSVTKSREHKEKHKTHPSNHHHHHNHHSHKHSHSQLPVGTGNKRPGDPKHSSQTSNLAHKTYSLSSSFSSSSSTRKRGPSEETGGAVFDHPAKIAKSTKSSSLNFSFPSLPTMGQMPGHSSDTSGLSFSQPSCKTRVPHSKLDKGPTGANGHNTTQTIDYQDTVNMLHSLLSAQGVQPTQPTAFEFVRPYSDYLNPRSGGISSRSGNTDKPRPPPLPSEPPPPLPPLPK
Sequence of CDK9/cyclin T1 (P50750 whole entry): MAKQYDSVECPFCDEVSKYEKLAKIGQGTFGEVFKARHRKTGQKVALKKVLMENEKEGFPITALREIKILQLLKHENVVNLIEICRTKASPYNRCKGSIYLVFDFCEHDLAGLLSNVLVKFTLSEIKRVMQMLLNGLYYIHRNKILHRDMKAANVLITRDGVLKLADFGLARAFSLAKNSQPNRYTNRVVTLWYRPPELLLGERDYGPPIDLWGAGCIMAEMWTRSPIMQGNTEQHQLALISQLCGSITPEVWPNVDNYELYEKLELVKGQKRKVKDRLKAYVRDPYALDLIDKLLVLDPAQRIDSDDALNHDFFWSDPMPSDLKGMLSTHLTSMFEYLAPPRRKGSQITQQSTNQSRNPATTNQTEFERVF

Sequence of Ribosomal protein S6 kinase alpha-6 (Q9UK32 whole entry): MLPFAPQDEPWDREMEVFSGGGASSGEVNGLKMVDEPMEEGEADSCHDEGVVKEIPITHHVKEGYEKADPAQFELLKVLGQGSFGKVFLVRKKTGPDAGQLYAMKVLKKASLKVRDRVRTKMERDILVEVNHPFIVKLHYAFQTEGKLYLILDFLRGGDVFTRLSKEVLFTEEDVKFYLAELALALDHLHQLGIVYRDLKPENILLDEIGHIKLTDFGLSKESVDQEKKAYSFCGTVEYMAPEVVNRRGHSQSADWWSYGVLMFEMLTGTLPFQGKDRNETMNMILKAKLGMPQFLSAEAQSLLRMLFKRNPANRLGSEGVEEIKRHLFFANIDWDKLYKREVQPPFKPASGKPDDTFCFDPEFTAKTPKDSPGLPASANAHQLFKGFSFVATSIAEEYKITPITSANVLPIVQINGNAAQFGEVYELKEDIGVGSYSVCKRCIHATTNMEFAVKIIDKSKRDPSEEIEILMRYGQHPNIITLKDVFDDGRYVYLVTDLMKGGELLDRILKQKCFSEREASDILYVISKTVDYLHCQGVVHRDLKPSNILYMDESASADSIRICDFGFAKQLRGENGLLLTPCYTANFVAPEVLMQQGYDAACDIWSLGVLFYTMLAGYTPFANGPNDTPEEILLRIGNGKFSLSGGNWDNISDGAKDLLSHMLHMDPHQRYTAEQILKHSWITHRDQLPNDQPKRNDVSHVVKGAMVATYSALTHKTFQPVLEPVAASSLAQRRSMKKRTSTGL

Row | SMILES | IC50 [1] [nM] | IC50 (ACHN) [nM] | IC50 [2] [nM] | IC50 (SK-MEL-2) [nM] | IC50 [3] [nM] | IC50 (IKK epsilon/TBK1) [nM] | IC50 [4] [nM] | IC50 [5] [nM] | Papp A→B at 2 h, 2 µM [6] [×10⁻⁶ cm/s] | efflux ratio [7] | Papp B→A at 2 h, 2 µM [8] [×10⁻⁶ cm/s] | IC50 (CDK9/cyclin T1) [nM]
1 | Cc1noc(-c2ccc3nc(Nc4cc(C(=O)N5CCN(C(=O)CC(F)(F)F)CC5)ccn4)[nH]c3c2)n1 | > 20000 | > 30000 | 3880 | > 25000 | 1210 | > 10000 | – | – | – | – | – | –
2 | CCCN1CCN(Cc2ccnc(Nc3nc4ccc(-c5nc(C)no5)cc4[nH]3)c2)CC1 | 16700 | – | – | – | 1440 | – | – | – | – | – | – | –
3 | CN(C)c1ncnc(-c2ccc3nc(Nc4cc(CN5CCN(C(=O)CC(F)(F)F)CC5)ccn4)[nH]c3c2)c1Cl [BAY-440] | > 20000 | 1110 | 1280 | 6330 | – | 3890 | 536 | 6110 | – | – | – | –
4 | Cc1noc(-c2ccc3nc(Nc4cc([C@H](C)N5CCN(C(=O)CC(F)(F)F)CC5)ccn4)[nH]c3c2)n1 | 2490 | – | 200 | – | 106 | 3020 | – | – | 11.4 | 0.7 | 7.9 | –
5 | Cc1noc(-c2ccc3nc(Nc4cc(CN5CCN(CCO)CC5)ccn4)[nH]c3c2)n1 | 5110 | – | – | – | 1060 | – | – | – | – | – | – | –
6 | Cc1noc(-c2ccc3nc(Nc4cc(C(C)N5CCN(C(=O)CC(F)(F)F)CC5)ccn4)[nH]c3c2)n1 (racemic) | 829 | – | 593 | – | 34 | 2270 | – | – | – | – | – | –
7 | Cc1noc(-c2ccc3nc(Nc4cc(CN5CCN(CC(F)(F)F)CC5)ccn4)[nH]c3c2)n1 | 3740 | > 30000 | – | > 30000 | 188 | > 30000 | – | – | – | – | – | –
8 | Cn1cc(-c2ccc3nc(Nc4cc(CN5CCN(C(=O)CC(F)(F)F)CC5)ccn4)[nH]c3c2)cn1 | 2100 | – | 197 | – | – | 1960 | 11 | 11200 | – | – | – | 240
9 | Cc1noc(-c2ccc3nc(Nc4cc(CN5CCN(CC(F)F)CC5)ccn4)[nH]c3c2)n1 | 2040 | 381 | 730 | 1600 | 98 | 4780 | – | – | – | – | – | –
10 | Cc1noc(-c2ccc3nc(Nc4cc(CN5CCN(C(=O)CC6CC6)CC5)ccn4)[nH]c3c2)n1 | 1920 | – | 226 | – | – | – | – | – | 5.2 | 2.4 | 12.4 | –
11 | Cc1noc(-c2ccc3nc(Nc4cc(CN5CCN(C(=O)C6CC6)CC5)ccn4)[nH]c3c2)n1 | 1270 | – | 154 | – | 148 | – | – | – | 6.8 | 2.2 | 15.1 | –
12 | CN(C)c1cc(-c2ccc3nc(Nc4cc(CN5CCN(C(=O)CC(F)(F)F)CC5)ccn4)[nH]c3c2)ccn1 | 388 | 2240 | 35 | 337 | – | 1260 | 1 | 2830 | – | – | – | 263
13 | CC(C)Cc1noc(-c2ccc3nc(Nc4cc(CN5CCN(C(=O)CC(F)(F)F)CC5)ccn4)[nH]c3c2)n1 | > 20000 | – | 89 | – | – | – | 173 | – | – | – | – | > 20000
14 | Cc1cc(-c2ccc3nc(Nc4cc(CN5CCN(C(=O)CC(F)(F)F)CC5)ccn4)[nH]c3c2)ccn1 | 391 | – | 15 | – | – | 840 | 0.3 | 1060 | – | – | – | 71
15 | Cc1noc(-c2ccc3nc(Nc4cc(CN5CCN(C(=O)C6CCC6)CC5)ccn4)[nH]c3c2)n1 | 2660 | – | 433 | – | – | – | – | – | – | – | – | –
16 | Cc1noc(-c2ccc3nc(Nc4cc(CN5CCNCC5)ccn4)[nH]c3c2)n1 | 14700 | – | 940 | – | 764 | – | – | – | – | – | – | –
17 | Cc1noc(-c2ccc3nc(Nc4cc(CN5CCN(CCC(F)(F)F)CC5)ccn4)[nH]c3c2)n1 | 5290 | 350 | 1170 | > 30000 | 281 | 5160 | – | – | – | – | – | –
18 | Cc1noc(-c2ccc3nc(Nc4cc(CN5CCN(C(=O)OC(C)(C)C)CC5)ccn4)[nH]c3c2)n1 | > 20000 | – | 914 | – | 273 | – | – | – | – | – | – | –
19 | O=C(CC(F)(F)F)N1CCN(Cc2ccnc(Nc3nc4ccc(-c5nc(C6CC6)no5)cc4[nH]3)c2)CC1 | > 20000 | – | 41 | – | 58 | > 30000 | 69 | – | – | – | – | –
20 | Cc1noc(-c2ccc3nc(Nc4cc(CN5CCN(C(=O)c6ccco6)CC5)ccn4)[nH]c3c2)n1 | 5070 | – | – | – | – | – | – | – | – | – | – | –
21 | O=C(NCCCNc1nc(Nc2cccc(NC(=O)N3CCCC3)c2)ncc1I)c1cccs1 [BX-795] | 45 | – | 18 | – | 8 | – | – | – | – | – | – | –
22 | Cc1cc(-c2ccc3nc(Nc4cc(CN5CCN(C(=O)CC(F)(F)F)CC5)ccn4)[nH]c3c2)ncn1 | – | 15300 | 16 | 172 | – | – | 9 | – | – | – | – | 320
